# Experimental data as given in patent US11474097B2, “Method of identifying a compound which affects the multienzyme metabolic assembly of glucose metabolism and its association with cell cycle progression in cancer cells” (UNIVERSITY OF MARYLAND, BALTIMORE COUNTY, priority 2018, dated 2022).
# Structures can show the parent of a compound that is named as a salt.
# Assays:
# Format in all cases: cell-based, human
# [1] = tested on: PFK1-mEGFP clustering in HeLa-T-PFK1G cells; assay: qHTS PFK1-mEGFP clustering assay with the LOKI library; details: for Curve class: LOKI screen; for PFK1-mEGFP clustering when the assay was repeated: repeat of the LOKI assay, FIGS. 8A-8C
# Experimental: HeLa-T-PFK1G cells were plated in 1536-well black, clear bottom, low base microwell plates (Aurora Microplates, Inc.) at a density of 400 cells/well in DMEM supplemented with 10% dialyzed FBS, 1% Pen-Strep, and 1 μg/mL doxycycline. The cells were incubated at 37° C., 5% CO2, and 95% humidity for 16 hours. A qHTS assay was scaled to 4 μL volumes in 1536-well format in a semi-automated manner.
# Second, the qHTS assay was carried out with the LOKI library (10 mM, 11-point 1:3 intra-plate titration). Again, 23 nL of compounds were transferred by a pintool (Kalypsys) in the final concentration range of 974 pM to 57.5 μM along with DMSO. […] The cells were then incubated overnight with small molecules. Approximately 24 hours later, the cells were fixed with 3.5% paraformaldehyde and nuclei were stained using a 1:1000 dilution of Hoechst dye for ˜20 minutes. Cells were washed and imaged with an INCell Analyzer 2000 or INCell Analyzer 2200 (GE Healthcare Life Sciences) as described above.
# Images were processed in the GE Workstation software and analyzed with a multitarget analysis of fluorescence. Top-hat segmentation of the DAPI channel was used to identify nuclei with a minimum area of 100 μm^2 and sensitivity of 40 settings. Multiscale top-hat segmentation of the FITC channel was used to identify cells with a characteristic area of 200 μm^2 and sensitivity of 70 settings. This allowed for the identification of fluorescent cells from the background or dead cells. Following cell segmentation, the same FITC channel was analyzed with multiscale top-hat segmentation to identify PFK1-mEGFP clusters with a size range of 0.2-2 μm^2, number scales of 1, process parameters of 1 pixel, sensitivity of 40, and inclusions in the cytoplasm. A filter of object area, that is, the area of PFK1-mEGFP clusters, below 30 μm^2 and an advanced sensitivity range of 1.5, was also applied. A decision tree thresholding was developed to identify cells with PFK1 clusters with three nodes. The start node required a cell intensity above 110 GL, the second node required a PFK1 cluster count above 1, and the third node required the total area of the PFK1 cluster above 5 μm^2. Ultimately, this allowed for the identification of cluster-positive cells over non-clustering cells. The total number of cells with a total area of PFK1 clusters above 5 μm^2 (most stringent parameter) and the total number of cells with any PFK1 clusters were calculated with the above algorithm and normalized by plate to the 57.5 μM kenpaullone intra-plate control as previously described (Inglese et al., 2006). Assay effectiveness including S:N (the signal to noise ratio) and Z′ (the index of assay quality (Zhang et al., 1999)) were calculated for both parameters using the same respective control. Both parameters were normalized to the average signal of DMSO (vehicle)-treated wells as a zero percent neutral control and the average signal of 57.5 μM kenpaullone-treated wells as maximum PFK1-mEGFP clustering. Cell count based on the number of nuclei was used as a parameter of cytotoxicity, which was also normalized to the average signal of DMSO-treated wells as a zero percent neutral control and the average signal of 57.5 μM […]-treated wells as maximum PFK1-mEGFP clustering. The respective normalized data from each assay plate was corrected using DMSO only treated assay plates at the beginning and end of each library screen. In-house software (http://ncgc.nih.gov/pub/openhts/curvefit/) was used to fit the resulting intra-plate titration data to the standard Hill equation and concentration-response curves were classified by a titration curve as previously described (Southall et al.). Curve fits assignments of class 1.1, 1.2, 2.1 and 2.2s were considered active (i.e., promotion of the PFK1-mEGFP clusters) and visually confirmed.
# [2] = tested on: PFK1-mEGFP clustering in HeLa-T-PFK1G cells; assay: High-resolution fluorescence microscopy of PFK1-mEGFP clustering
# Experimental: A day before imaging, HeLa-T-PFK1G cells in RPMI1640 supplemented with 10% dialyzed FBS, 200 ug/ml G418 sulfate and 100 ug/ml hygromycin B, were plated in the presence of 1 μg/mL doxycycline to induce the expression of PFK1-mEGFP. On the day of imaging, the cells were washed three times with an imaging solution (20 mM HEPES (pH 7.4), 135 mM NaCl, 5 mM KCl, 1 mM MgCl2, 1.8 mM CaCl2) and 5.6 mM glucose) and allowed to adjust to ambient temperature for ˜45-60 minutes prior to small molecule treatments. Meanwhile, transiently transfected HeLa cells were imaged after being washed with the imaging solution after ˜24 hours following transfection. The cells were then treated with small molecules and incubated at 37° C. for the given time. All samples were imaged at ambient temperature (˜25° C.) with a 60×1.45 NA objective lens (Nikon CFI Plan Apo TIRF) using a Photometrics CoolSnap EZ monochrome CCD camera on a Nikon Eclipse Ti-inverted C2 confocal microscope.
# Epifluorescence imaging was carried out using a set of Z488/10-FC cleanup, HC TIRF Dichroic and 525/50-HC emission filter from Chroma Technology. Images were acquired using NIS Elements (Nikon) and images were analyzed using an ImageJ freeware (National Institutes of Health).
# Next, the 8 compounds were assessed for their ability to induce PFK1-mEGFP clustering under high-resolution fluorescence microscopy. HeLa-T-PFK1G cells were treated with 57.5 μM for 5 hours (FIGS. 2A and 2B) and 10 μM for 25 hours (FIGS. 2C and 2D). […] Quantitatively, SU9516 induced medium- and large-sized PFK1-mEGFP clustering in 26.6±12% of the cells at 57.5 μM for 5 hours, and in 40.0±16% of cells at 10 μM for 25 hours (see, e.g., FIGS. 2B and 2D, respectively).
# [3] = tested on: transiently expressed PFK1-mEGFP in HeLa cells; assay: PFK1-mEGFP clustering in transiently transfected wild-type HeLa cells; details: 57.5 μM, 5 hours
# Experimental: A day before transient transfection, wild-type HeLa cells were plated on either glass-bottomed 35 mm petri dishes (MatTek) or 8-well chambers (LabTek) in RPMI 1640 supplemented with 10% dialyzed FBS without antibiotics. The following day, HeLa cells were transfected with PFK1-mEGFP using Lipofectamine 2000 (Invitrogen Cat#11668019) in Opti-MEM I (ThermoFisher Cat#11058-021) and allowed to incubate in a HeraCell CO2 incubator (37° C., 5% CO2, and 95% humidity). Approximately 5 hours later, the medium was exchanged for fresh growth medium and incubated overnight in the CO2 incubator.
# A day before imaging, HeLa-T-PFK1G cells in RPMI1640 supplemented with 10% dialyzed FBS, 200 ug/ml G418 sulfate and 100 ug/ml hygromycin B, were plated in the presence of 1 μg/mL doxycycline to induce the expression of PFK1-mEGFP. On the day of imaging, the cells were washed three times with an imaging solution (20 mM HEPES (pH 7.4), 135 mM NaCl, 5 mM KCl, 1 mM MgCl2, 1.8 mM CaCl2) and 5.6 mM glucose) and allowed to adjust to ambient temperature for ˜45-60 minutes prior to small molecule treatments. […]
# As a control, PFK1-mEGFP was transiently transfected into wild-type HeLa cells and treated with SU9516. After 5 hours of treatment with 57.5 μM of SU9516, the promotion of medium- and large-sized clusters from small-sized clusters at single-cell levels were monitored (FIG. 4).
# [4] = tested on: cell cycle progression of HeLa-T-PFK1G cells; assay: Cell cycle analysis by propidium iodide staining and flow cytometry; details: 10 μM, 24 hours
# Experimental: FIG. 7A illustrates the effect of SU9516 on the cell cycle progression of HeLa-T-PFK1G cells. Cells received no small molecules or were treated with DMSO or 10 uM SU9516 and incubated for 24 hours. Then, cells were assessed for cell cycle progression by propidium iodide staining. The changes of the average percentage of cells in each cell cycle following incubation with an indicated compound are shown. Error bars represent the standard deviations of at least three trials and statistical significance was determined using student's two-tailed t test. HeLa-T-PFK1G cells were plated in 6-well plates for a confluency of 70-90% in RPMI1640 supplemented with 10% dialyzed FBS in the presence of 1 ug/mL doxycycline. The following day, the cells were treated with SU9516 or DMSO for 24 hours. The cells were then harvested and analyzed for the cell cycle progression as previously described (Crowley et al., 2016). Briefly, hundreds of thousands of cells were removed from 6-well plates using trypsin, washed with 1×PBS (pH 7.4), resuspended in ice-cold PBS and fixed with ice-cold methanol for 20 minutes at 4° C. The cells were then washed and resuspended in the cell cycle buffer, which contains 30 ug/mL propidium iodide and 100 μg/mL RNase A (Thermo Cat # EN0531) in 1×PBS (pH 7.4). After being incubated for at least 45 minutes, flow cytometry was performed with a CyAn ADP (Beckman Coulter) running Summit V 4.00, equipped with a 488 nm laser line and 530/40 and 613/20 emission filters. Using FlowJo (FlowJo, LLC), cell populations were gated based on the expression of PFK1-mEGFP in cells as well as their size and granularity. The cell cycle progression was then assessed by the Dean-Jett-Fox analysis using Cell Cycle platform available in FlowJo (Fox, 1980).
# [5] = tested on: PFK1-mEGFP clustering in HeLa-T-PFK1G cells; assay: Resveratrol-induced clustering of PFK1-mEGFP (positive control, assay development); details: 200-250 μM, three hours
# Experimental: Cells were treated with 200-250 μM resveratrol for three hours. Scale bar, 10 μm.
# [6] = Table 5, CDK inhibitors that did not induce PFK1-mEGFP clustering
# [7] = Table 4, inhibitors of the off-targets of SU9516
# [8] = 10 μM, 24 hr, HeLa-T-PFK1G cells
structure (smiles),measurement,setting,value
CN1CCC(c2c(O)cc(O)c3c(=O)cc(-c4ccccc4Cl)oc23)C(O)C1 (stereo in doubt) [NCGC00250401-01],Curve class,[1]; [6],4
Cn1cnc2c(NCc3ccccc3)nc(NCCO)nc21 [NCGC00015763-01],Curve class,[1]; [6],4
O=C(NC1CCNCC1)c1[nH]ncc1NC(=O)c1c(Cl)cccc1Cl [NCGC00263091-01],Curve class,[1]; [6],−1.3
"CC(=O)c1c(C)c2cnc(Nc3ccc(N4CCNCC4)cn3)nc2n(C2CCCC2)c1=O [NCGC00263129-01, Palbociclib]",Curve class,[1]; [7],2.1
Cn1c(=O)c(F)c(Nc2ccc(I)cc2F)c2c(=O)n(C[C@@H](O)CO)cnc21 [NCGC00263187-01],Curve class,[1]; [6],−2.4
CCc1ccc(NC(=O)c2[nH]c(C)c(C(C)=O)c2C)cc1S(=O)(=O)Nc1cccc(C#N)c1 [NCGC00345632-01],Curve class,[1]; [6],−2.1
"CCS(=O)(=O)Nc1ccc2c(c1)/C(=C(/Nc1ccc(CN3CCCCC3)cc1)c1ccccc1)C(=O)N2 [NCGC00346542-01, Hesperadin]",Curve class,[1]; [7],2.1
"CC(C)c1cnn2c(NCc3ccccc3)cc(NCCCCCCN)nc12 [NCGC00346553-01, BS-181]",Curve class,[1]; [7],2.1
same,PFK1-mEGFP clustering when the assay was repeated,[1],did not promote PFK1-mEGFP clustering
"CC(=O)NCC(=O)N1[C@H]2CC[C@H]1c1cc(Nc3ncc(C(F)(F)F)c(NC4CCC4)n3)ccc12 [NCGC00346652-01, PF-03814735]",Curve class,[1]; [7],2.1
same,PFK1-mEGFP clustering when the assay was repeated,[1],induced PFK1-mEGFP clustering
CC(O)(C#Cc1ccc2c(c1)N(c1nc(N)ncc1Cl)CC2)c1nccs1 (stereo not drawn) [NCGC00346747-02],Curve class,"[1]; PFK1-mEGFP clustering vs log compound concentration, Table 3 hits",2.1
"CC(=O)OC1C(C)OC(Oc2c(-c3ccc(O)cc3)oc3cc(O)cc(O)c3c2=O)C(O)C1OC(C)=O (stereo not drawn) [NCGC00346893-01, SL-0101-1]",Curve class,[1]; [7],2.1
same,Curve class,[1]; [6],4
same,PFK1-mEGFP clustering when the assay was repeated,[1],did not promote PFK1-mEGFP clustering
C=CCc1cccc(/C=N/NC(=O)CN2CCN(Cc3ccccc3)CC2)c1O [PAC-1],cell morphology observed,[2]; [8],vacuole-type artifact
"COc1ccc2c(c1)/C(=C/c1cnc[nH]1)C(=O)N2 [SU9516, 3-[1-(3H-Imidazol-4-yl)-meth-(Z)-ylidene]-5-methoxy-1,3-dihydro-indol-2-one]",percent of cells with medium- and large-sized PFK1-mEGFP clustering,[2]; 10 μM for 25 hours,40.0±16%
same,percent of cells with medium- and large-sized PFK1-mEGFP clustering,[2]; 57.5 μM for 5 hours,26.6±12%
same,ability to induce PFK1-mEGFP clustering under high-resolution fluorescence microscopy,[2]; 57.5 μM for 5 hours and 10 μM for 25 hours,capable of inducing PFK1-mEGFP clusters
same,EC50,"[2]; Homo sapiens, titration for 25 hours, HeLa-T-PFK1G cells, read-out: EC50 with respect to PFK1-mEGFP clustering",6.8 µM
same,promotion of medium- and large-sized PFK1-mEGFP clusters,[3],capable of promoting PFK1-mEGFP clusters
same,population of cells in the G2 phase,[4]; 18.9%±[…] without compound,45.6%±1.9%
same,population of cells in the S phase,[4]; 21.5%±7.2% without compound,4.2%±2.4%
same,population of cells in the G1 phase,"[4]; 54.7%±5.7% without compound, no significant change",48.4%±2.7%
"Clc1ccc(C(c2ccc(Cl)cc2)n2cc[n+](CC(OCc3ccc(Cl)cc3Cl)c3ccc(Cl)cc3Cl)c2)cc1 (stereo not drawn) [calmidazolium chloride, Calmidazolium chloride]",cell morphology observed,[2]; [8],vacuole-type artifact
"CN1CCC[C@@H]1CCO[C@](C)(c1ccccc1)c1ccc(Cl)cc1 [clemastine fumarate, Clemastine fumarate]",cell morphology observed,"[2]; 57.5 μM, 6 hr, HeLa-T-PFK1G cells",protein localization and cell death
Oc1ccc(C=Cc2cc(O)cc(O)c2)cc1 [resveratrol],percent of cells exhibiting medium- or large-sized clusters in the cytoplasm,[5],80-90%
